Data as given in US7592329B2, “Crystalline complexes of fluticasone-2-furoate” (Glaxo Group Limited, priority 2003, dated 2009).
“Also recorded” adds a separate entry of the source.

Columns and labels:
[1] = Pharmacokinetics after intravenous administration in the anaesthetised pig; type: in vivo; settings: IV mixture of the two compounds at 0.1 mg/kg
Description: The clearance of these two glucocorticoids is similar is this experimental pig model.

[2] = Lung absorption (mean absorption time) in man; type: in vivo; settings: average; for time taken for 90% of lung dose to be absorbed: mathematical deconvolution of plasma concentration time data
[3] = system: human hepatocytes; assay: In vitro metabolism in human hepatocytes; type: in vitro ADME; settings: 17-β carboxylic acid (X) the only significant metabolite
[4] = Pharmacokinetics after intravenous (IV) and oral dosing in rats; type: in vivo, male Wistar Han rats; settings: rat
[5] = system: human lung tissue; assay: In vitro human lung tissue affinity experiments; type: in vitro ADME
[6] = Pharmacokinetics after intra-tracheal dry powder dosing in the pig; type: in vivo; settings: for time after dosing up to which quantifiable in plasma: anaesthetised pigs, 1 mg intra-tracheal, LLOQ 10 pg/mL compound (I), 20 pg/mL fluticasone propionate
Experimental: Serial blood samples were taken for up to 8 h following dosing.

[7] = system: thymus involution; assay: Rat model of thymus involution; type: in vivo; settings: 3 daily IT doses of 100 μg
[8] = system: rat hepatocytes; assay: In vitro metabolism in rat hepatocytes; type: in vitro ADME; settings: 17-β carboxylic acid (X) the only significant metabolite
[9] = system: human bronchial epithelial cells; assay: Cell transport and accumulation studies using human bronchial epithelial cells; type: in vitro ADME
[10] = molecular target: T1, glucocorticoid receptor (Homo sapiens, UniProt P04150); assay: In vitro functional glucocorticoid assays, metabolite versus parent; type: cell-based
T1 sequence (P04150 1-777): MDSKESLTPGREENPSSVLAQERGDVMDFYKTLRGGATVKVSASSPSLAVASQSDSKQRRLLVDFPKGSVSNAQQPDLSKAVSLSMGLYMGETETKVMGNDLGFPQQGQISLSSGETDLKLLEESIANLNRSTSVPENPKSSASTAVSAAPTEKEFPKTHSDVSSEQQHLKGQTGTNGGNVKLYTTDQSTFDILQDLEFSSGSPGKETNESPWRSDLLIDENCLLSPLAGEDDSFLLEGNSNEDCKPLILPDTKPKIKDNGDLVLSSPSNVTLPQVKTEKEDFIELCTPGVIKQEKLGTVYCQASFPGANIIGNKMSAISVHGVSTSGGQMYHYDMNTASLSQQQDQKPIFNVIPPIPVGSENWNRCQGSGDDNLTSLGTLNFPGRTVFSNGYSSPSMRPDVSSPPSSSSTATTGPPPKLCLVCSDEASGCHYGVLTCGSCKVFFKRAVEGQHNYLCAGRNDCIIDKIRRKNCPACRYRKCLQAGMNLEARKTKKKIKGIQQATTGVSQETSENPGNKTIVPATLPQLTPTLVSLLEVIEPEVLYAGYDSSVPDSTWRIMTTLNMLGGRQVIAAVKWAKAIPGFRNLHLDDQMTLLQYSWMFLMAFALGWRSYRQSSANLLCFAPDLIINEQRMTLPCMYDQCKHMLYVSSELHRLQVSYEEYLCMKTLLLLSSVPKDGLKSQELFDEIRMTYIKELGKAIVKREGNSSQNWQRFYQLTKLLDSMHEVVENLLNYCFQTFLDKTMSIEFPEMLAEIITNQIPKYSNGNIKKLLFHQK
Experimental: Compound (I) undergoes highly efficient hepatic metabolism to yield the 17-β carboxylic acid (X) as the sole major metabolite in rat and human in vitro systems.
Pharmacological activity was assessed in a functional in vitro assay of glucocorticoid agonist activity which is generally predictive of anti-inflammatory or anti-allergic activity in vivo.
The functional assay was based on that described by K. P. Ray et al., Biochem J. (1997), 328, 707-715. A549 cells stably transfected with a reporter gene containing the NF-κB responsive elements from the ELAM gene promoter coupled to sPAP (secreted alkaline phosphatase) were treated with test compounds at appropriate doses for 1 hour at 37° C. The cells were then stimulated with tumour necrosis factor (TNF, 10 ng/ml) for 16 hours, at which time the amount of alkaline phosphatase produced is measured by a standard colourimetric assay. […]
In a variant of the above method, to monitor these functions, two reporter plasmids have been generated and introduced separately into A549 human lung epithelial cells by transfection. […] After incubation for 1 h 0.5 ng/ml TNFα (R&D Systems) was added and after a further 15 hours at 37° C., the levels of firefly and renilla luciferase were measured using the Packard Firelite kit following the manufacturers' directions. Dose response curves were constructed from which EC50 values were determined.

[11] = molecular target: glucocorticoid receptor (GR) (Homo sapiens, UniProt P04150); assay: Transactivation (GR) renilla luciferase reporter assay in A549 cells; type: cell-based; settings: GRE renilla luciferase reporter, read-out: Transactivation (GR) ED50
Description: The glucocorticoid receptor (GR) can function in at least two distinct mechanisms, by upregulating gene expression through the direct binding of GR to specific sequences in gene promotors, and by downregulating gene expression that is being driven by other transcription factors (such as NFκB or AP-1) through their direct interaction with GR.
The first cell line contains the firefly luciferase reporter gene under the control of a synthetic promoter that specifically responds to activation of the transcription factor NFκB when stimulated with TNFα. The second cell line contains the renilla luciferase reporter gene under the control of a synthetic promotor that comprises 3 copies of the consensus glucocorticoid response element, and which responds to direct stimulation by glucocorticoids. Simultaneous measurement of transactivation and transrepression was conducted by mixing the two cell lines in a 1:1 ratio in 96 well plate (40,000 cells per well) and growing overnight at 37° C. Test compounds were dissolved in DMSO, and added to the cells at a final DMSO concentration of 0.7%. After incubation for 1 h 0.5 ng/ml TNFα (R&D Systems) was added and after a further 15 hours at 37° C., the levels of firefly and renilla luciferase were measured using the Packard Firelite kit following the manufacturers' directions. Dose response curves were constructed from which EC50 values were determined.

Row | clearance compared with fluticasone propionate [1] | mean absorption time (MAT) [2] [h] | time taken for 90% of lung dose to be absorbed [2] [h] | bioavailability ([4]; male, Wistar Han, plasma, oral, 0.1 mg/kg, oral 0.1 mg/kg vs IV 0.1 mg/kg) [%] | plasma clearance (in words) ([4]; in vivo) | affinity for human lung tissue [5] | time after dosing up to which quantifiable in plasma [6] | reduction of thymus weight [7] [%] | accumulation within the cell layer compared with fluticasone propionate [9] | flux across the cell layer compared with fluticasone propionate [9] | SMILES | manner of metabolism [3] | systemic exposure compared with fluticasone propionate ([6]; dry powder delivery to the lungs of anaesthetised pigs) | manner of metabolism [8] | fold less active than the parent compound [10] [fold] | EC50 [11] [nM]
1 | similar | 12 | 21 | 0.9 | approaching hepatic blood flow | significantly higher affinity | up to 2 hours | 67 | greater accumulation | reduced flux | C[C@@H]1CC2C3C[C@H](F)C4=CC(=O)C=C[C@]4(C)[C@@]3(F)[C@@H](O)C[C@]2(C)[C@@]1(OC(=O)c1ccco1)C(=O)SCF (stereo partly drawn) [Compound of Formula (I), 6α,9α-Difluoro-17α-[(2-furanylcarbonyl)oxy]-11β-hydroxy-16α-methyl-3-oxo-androsta-1,4-diene-17β-carbothioic acid S-fluoromethyl ester] | metabolised in an identical manner to fluticasone propionate | markedly reduced systemic exposure; also recorded: significantly lower exposure | metabolised in an identical manner to fluticasone propionate | – | –
2 | – | 2.1 | 11 | – | – | – | up to 8 hours | 78 | – | – | CCC(=O)O[C@]1(C(=O)SCF)[C@H](C)C[C@H]2[C@@H]3C[C@H](F)C4=CC(=O)C=C[C@]4(C)[C@@]3(F)[C@@H](O)C[C@@]21C [Fluticasone propionate, 6α,9α-Difluoro-17α-(1-oxopropoxy)-11β-hydroxy-16α-methyl-3-oxo-androsta-1,4-diene-17β-carbothioic acid S-fluoromethyl ester, reference compound] | – | – | – | – | –
3 | – | – | – | – | – | – | – | – | – | – | C[C@@H]1CC2C3C[C@H](F)C4=CC(=O)C=C[C@]4(C)[C@@]3(F)[C@@H](O)C[C@]2(C)[C@@]1(OC(=O)c1ccco1)C(=O)O (stereo partly shown) [Metabolite (X)] | – | – | – | > 1000 | > 250
